Source: patent US11618747B2, “LXR modulators with bicyclic core moiety” (OrsoBio, Inc., priority 2018, dated 2023)
Like-named read-outs stand apart in the source and are kept apart here.

Biological target: T1, ligand-binding domain (LBD) of LXRβ (Homo sapiens, UniProt P55055, DUP175-175)
T1 construct: LXRβ (amino acids 156-461); expressed in transfected cells; host or cells: HEK293
T1 sequence (P55055 with tags, fused parts or gaps DUP175-175 limits assumed): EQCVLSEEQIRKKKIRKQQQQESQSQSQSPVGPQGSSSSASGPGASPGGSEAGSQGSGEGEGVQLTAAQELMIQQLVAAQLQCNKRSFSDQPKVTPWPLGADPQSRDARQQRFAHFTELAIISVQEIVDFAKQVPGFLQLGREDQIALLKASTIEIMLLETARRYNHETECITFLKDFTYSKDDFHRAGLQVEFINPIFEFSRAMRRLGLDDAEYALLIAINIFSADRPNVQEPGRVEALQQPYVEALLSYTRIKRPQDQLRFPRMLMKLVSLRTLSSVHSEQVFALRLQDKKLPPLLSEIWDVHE
Assay: LXR Gal4 reporter transient transfection assay (LBD-M2H Gal4β)
Assay type: cell-based
Details: HEK293 cells
Outline: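 Cells (HEK293, 3.5×10^4/well) were plated 16-20 h, transfected with LXR, cofactor and reporter plasmids, treated with compound after 4 h, and lysed after a further 16 h. Interaction of LXR constructs with SRC1 or NCoR is detected by GAL4-driven Firefly luciferase.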

[1] = LXRβ LBD, read-out: LBD-M2H Gal4β (EC50 range)

Structure (SMILES)	LBD-M2H Gal4β efficacy (value in brackets)	EC50 (read-out: LBD-M2H Gal4β potency)	EC50 [1]
Cc1ccc(S(=O)(=O)n2c(-c3cccc(N4CC(C(=O)O)C4)c3)c(-c3ccsc3C#N)c3cc(F)ccc32)cc1 [3/32]	81%	0.013 µM	–
Cc1ccc(S(=O)(=O)n2c(-c3cccc(N4CC(C(=O)O)C4)c3)c(-c3ccsc3C#N)c3cc(F)c(F)cc32)cc1 [3/42]	–	–	< 0.1 µM
Cc1ccc(S(=O)(=O)n2c(-c3cccc(N4CC(C(=O)O)C4)c3)c(-c3ccsc3C#N)c3cc(F)c(Cl)cc32)cc1 [3/43]	–	–	0.1 to 1 µM
Cc1ccc(S(=O)(=O)n2c(-c3cccc(N4CC(C(=O)O)C4)c3)c(-c3ccsc3C#N)c3cc(Cl)ccc32)cc1 [3/44]	–	–	< 0.1 µM
Cc1ccc(S(=O)(=O)n2c(-c3cccc(N4CC(C(=O)O)C4)c3)c(-c3ccsc3C#N)c3cc(C)ccc32)cc1 [3/46]	–	–	< 0.1 µM
